Laboratory results reported in patent US20130217694A1, “METHOD OF REDUCING THE SEVERITY OF INFLAMMATORY DERMATOLOGICAL CONDITIONS” (Allergan, Inc.., priority 2003, published 2013).

How the values were obtained:
mice [1] = assay: Phenylephrine-induced tactile hypersensitivity in mice; format: in vivo, mouse; details: for tactile (mechanical) hypersensitivity score: Phenylephrine (100 ng/kg I.P.), cumulative score 0 to 16, mean ± SEM
Description: To dissect the contribution of the sympathetic nervous system to sensory sensitization, mouse models having different mechanisms of sensory sensitization were developed. Tactile hypersensitivity was measured in mice following intrathecal or intraperitoneal injection of an inducing agent by scoring the response to light stroking of the mouse flank with a paintbrush.
(§1) Spinal drug injections were performed as follows. Mice (20-30 g) were injected intrathecally as described in Hylden and Wilcox, Eur. J. Pharmacol. 67:313-316 (1980). Briefly, a sterile 30-gauge ½ inch needle attached to a microsyringe was inserted between the L5 and L6 vertebrae. The mouse was held firmly by the pelvic girdle in one hand, while the syringe was held in the other hand at an angle of approximately 20° above the vertebral column. The needle was inserted into the tissue to one side of the L6 spinous process, into the groove between the spinous and transverse processes. The needle angle was decreased to about 10°, and the needle slowly advanced forward into the intervertebral space until a pop was felt and there was a visible serpentine tail movement. Compounds were slowly injected in the subarachnoid space in a volume of 5 μl. Each compound was tested at multiple doses. The minimal efficacious dose was used for all subsequent experiments.
Sensitivity to light touch was quantified by scoring the response of mice to light stroking of their flanks with a small paintbrush, which is not normally painful. […] The scores were summed to generate a cumulative score of 0 to 16 as described in Minami et al., Pain 57:217-223 (1994). Statistical calculations of significance for in vivo studies were done using a two-tailed Students t-test.

mice [2] = assay: Sulprostone-induced tactile hypersensitivity in mice; format: in vivo, mouse; details: for tactile (mechanical) hypersensitivity score: Sulprostone (200 ng IT), cumulative score 0 to 16, mean ± SEM; for analgesic activity in sulprostone-induced tactile hypersensitivity: result in words
Description: The activity of a synthetic EP1/EP3 receptor-selective prostaglandin agonist, sulprostone, also was assayed.
as §1, with “Mice (20-30 g) were injected intrathecally as described in Hylden and Wilcox, Eur. J. Pharmacol. 67:313-316 (1980).” left out
(§2) Sensitivity to light touch was quantified by scoring the response of mice to light stroking of their flanks with a small paintbrush, which is not normally painful. […] Statistical calculations of significance for in vivo studies were done using a two-tailed Students t-test.

mice [3] = assay: NMDA-induced tactile hypersensitivity in mice; format: in vivo, mouse; details: for tactile (mechanical) hypersensitivity score: NMDA (100 ng IT), cumulative score 0 to 16, mean ± SEM; for inhibition of NMDA-induced tactile hypersensitivity: result in words
Description: as §1, with “Mice (20-30 g) were injected intrathecally as described in Hylden and Wilcox, Eur. J. Pharmacol. 67:313-316 (1980).” left out
as §2

human α-2C receptor = biological target: T1, human α-2C receptor (Homo sapiens, UniProt P18825); assay: Inhibition of forskolin-induced cAMP accumulation in PC12 cells expressing human α-2C receptor; format: cell-based; details: percent efficacy relative to brimonidine
T1 construct: expressed in transfected cells; host or cells: PC12 cells (retroviral vector pCL BABE Puro)
T1 sequence (P18825 1-462): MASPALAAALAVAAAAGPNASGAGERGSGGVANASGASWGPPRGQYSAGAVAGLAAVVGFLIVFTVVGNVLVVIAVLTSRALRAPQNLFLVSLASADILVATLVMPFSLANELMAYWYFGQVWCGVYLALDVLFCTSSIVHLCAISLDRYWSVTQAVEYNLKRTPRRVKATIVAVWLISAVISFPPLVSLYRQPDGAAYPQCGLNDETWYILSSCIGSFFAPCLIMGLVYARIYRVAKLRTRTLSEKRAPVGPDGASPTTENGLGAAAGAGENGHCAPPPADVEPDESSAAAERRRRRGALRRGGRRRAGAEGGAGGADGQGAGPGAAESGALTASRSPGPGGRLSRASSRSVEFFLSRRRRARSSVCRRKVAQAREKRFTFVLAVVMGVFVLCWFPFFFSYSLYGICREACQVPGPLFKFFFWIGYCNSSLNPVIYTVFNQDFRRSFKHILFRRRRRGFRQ
Description: (§3) The human α-2A and α-2C receptor supernatants were added, in varying amounts, to naive PC12 cells, which were then incubated for 48 hours. The transduced cell populations were replated at a lower density and grown in media containing 100 ug/ml puromycin.
(§4) Intracellular cAMP measurement was performed as follows. PC12 cells stably expressing the human α-2A or human α-2C adrenergic receptors were plated in 96-well poly-D-lysine coated plates at a density of 30,000 cells per well in 100 μl DMEM supplemented with 10% horse serum, 5% heat inactivated fetal bovine serum, 1% antibiotic-antimycotic and 100 μg/ml puromycin. Cells were grown overnight at 37° C. and 5% CO2. Cells were dosed by adding an equal volume of media containing IBMX (to a final concentration of 1 mM), forskolin (to a final concentration of 10 μM) and the appropriate drug dilution (to a final concentration of between 10^−5 M and 10^−12 M). After a 10 minute incubation, the media was aspirated and the cells lysed with 200 μl lysis buffer (Amersham Biosciences; Piscataway, N.J.). Plates were stored at −20° C. for up to 24 hours prior to assay. Intracellular cAMP was determined using the Biotrak cAMP enzyme immunoassay system (Amersham Biosciences) according to the manufacturer's instructions. Plates were read on a plate reader at 450 nm.

[4] = biological target: T2, hamster α-1B adrenergic receptor (Mesocricetus auratus, UniProt P18841); format: cell-based; details: for hamster α1B % E: percent efficacy relative to phenylephrine; for agonist activity at the α-1B receptor: result in words
T2 sequence (P18841 1-515): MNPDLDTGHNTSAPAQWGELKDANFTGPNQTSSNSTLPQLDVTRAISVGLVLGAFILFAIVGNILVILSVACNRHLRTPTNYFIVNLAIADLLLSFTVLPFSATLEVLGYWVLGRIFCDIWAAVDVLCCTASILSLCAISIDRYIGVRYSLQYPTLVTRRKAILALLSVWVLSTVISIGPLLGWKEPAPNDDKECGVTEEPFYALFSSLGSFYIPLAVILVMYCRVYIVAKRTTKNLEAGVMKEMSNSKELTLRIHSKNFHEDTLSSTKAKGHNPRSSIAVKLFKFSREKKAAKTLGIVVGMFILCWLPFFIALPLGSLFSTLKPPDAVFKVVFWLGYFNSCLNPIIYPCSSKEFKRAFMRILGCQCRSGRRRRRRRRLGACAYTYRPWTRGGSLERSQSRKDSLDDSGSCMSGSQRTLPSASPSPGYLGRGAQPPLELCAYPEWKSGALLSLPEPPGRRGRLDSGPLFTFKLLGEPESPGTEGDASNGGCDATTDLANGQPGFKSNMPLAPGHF
Description: (§5) The bovine α-1A and hamster α-1B receptor supernatants were added, in varying amounts, to naive HEK293 cells, which were then incubated for 48 hours. The transduced cell populations were replated at a lower density and grown in media containing 0.25 ug/ml puromycin. […] Receptor density was measured in a prazosin radioligand binding assay.
(§6) Intracellular Ca^+2 responses were measured as follows in HEK293 cells stably expressing either the bovine α-1A or hamster α-1B adrenergic receptor. Between 40,000 to 50,000 cells were plated per well in 96-well poly-D-lysine coated plates in 0.2 ml DMEM containing 10% heat-inactivated fetal calf serum, 1% antibiotic-antimycotic and 0.25 μg/ml puromycin one day prior to use. Cells were washed twice with HBSS supplemented with 10 mM HEPES, 2.0 mM CaCl2 and 2.5 mM probenicid, and subsequently incubated at 37° C. for 60 minutes with 4 μM Fluo-4 (Molecular Probes; Eugene, Oreg.). The extracellular dye was washed from the plates twice prior to placing the plates in the fluorometric imaging plate reader (FLIPR; Molecular Devices; Sunnyvale, Calif.). Ligands were diluted in HBSS and aliquoted into a 96-well microplate. Drugs were tested over the concentration range of 0.64 nM to 10,000 nM. Data for Ca^+2 responses were obtained in arbitrary fluorescence units.

[5] = biological target: T3, bovine α-1A adrenergic receptor (Bos taurus, UniProt P18130); assay: Intracellular Ca+2 response in HEK293 cells expressing bovine α-1A receptor; format: cell-based; details: for bovine α1A % E: percent efficacy relative to phenylephrine; for agonist activity at the α-1A receptor: result in words
T3 sequence (P18130 1-466): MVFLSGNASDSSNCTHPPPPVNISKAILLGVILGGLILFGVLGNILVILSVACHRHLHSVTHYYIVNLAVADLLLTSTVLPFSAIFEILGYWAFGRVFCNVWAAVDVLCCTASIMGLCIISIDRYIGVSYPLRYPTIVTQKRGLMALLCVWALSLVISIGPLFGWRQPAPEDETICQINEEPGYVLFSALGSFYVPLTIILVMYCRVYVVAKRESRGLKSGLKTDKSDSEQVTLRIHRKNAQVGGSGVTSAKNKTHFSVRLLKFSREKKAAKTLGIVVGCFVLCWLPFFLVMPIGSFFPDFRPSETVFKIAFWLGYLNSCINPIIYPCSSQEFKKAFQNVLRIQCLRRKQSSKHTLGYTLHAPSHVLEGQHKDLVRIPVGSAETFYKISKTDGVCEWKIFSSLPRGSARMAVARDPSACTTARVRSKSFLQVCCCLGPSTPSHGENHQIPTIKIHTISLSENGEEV
Description: as §5, §6

human α-2A receptor = biological target: T4, human α-2A receptor (Homo sapiens, UniProt P08913); details: percent efficacy relative to brimonidine
T4 sequence (P08913 1-465): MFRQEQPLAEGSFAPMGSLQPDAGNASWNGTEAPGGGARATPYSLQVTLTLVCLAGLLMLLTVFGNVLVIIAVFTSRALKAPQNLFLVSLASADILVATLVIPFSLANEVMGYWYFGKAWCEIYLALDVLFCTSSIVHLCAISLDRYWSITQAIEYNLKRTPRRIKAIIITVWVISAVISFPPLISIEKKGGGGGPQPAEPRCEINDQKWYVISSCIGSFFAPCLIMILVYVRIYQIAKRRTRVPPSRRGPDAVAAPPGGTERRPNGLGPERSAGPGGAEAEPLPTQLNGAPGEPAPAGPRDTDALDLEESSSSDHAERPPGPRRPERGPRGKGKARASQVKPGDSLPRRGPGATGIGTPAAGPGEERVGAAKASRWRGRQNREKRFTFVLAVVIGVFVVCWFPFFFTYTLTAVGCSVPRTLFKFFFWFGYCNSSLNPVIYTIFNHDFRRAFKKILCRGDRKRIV
Description: as §3, §4

Structure (SMILES) | tactile (mechanical) hypersensitivity score (mice [1]) | tactile (mechanical) hypersensitivity score (mice [2]) | analgesic activity in sulprostone-induced tactile hypersensitivity (mice [2]; wildtype mice) | tactile (mechanical) hypersensitivity score (mice [3]) | human α2C % E (human α-2C receptor) | hamster α1B % E [4] | bovine α1A % E [5] | further results
CCN(Cc1cc(Br)ccc1OCc1ccccc1)c1ccc(C(=O)O)cn1 [EP1 antagonist] | 9.8 ± 0.7 | 4.0 ± 1.2 | completely blocked | 11.4 ± 1.53 | – | – | – | –
COc1cc2nc(N3CCN(C(=O)c4ccco4)CC3)nc(N)c2cc1OC [Prazosin] | – | – | no analgesic activity | – | – | – | – | analgesic activity in sulprostone-induced tactile hypersensitivity (mice [2]; α-2C knockout mice): no analgesic activity
COc1ccccc1N1CCN(CCCNc2c(C)c(=O)n(C)c(=O)n2C)CC1 [5-MU, 5-methyl urapidil] | 5.0 ± 1.0 | 12.0 ± 1.0 | – | 13.3 ± 0.8 | – | – | – | inhibition of phenylephrine-induced tactile hypersensitivity (mice [1]; wildtype mice, result in words): block the hypersensitive response
CNC[C@H](O)c1cccc(O)c1 [Phenylephrine] | – | – | – | – | 87% | 110% | 110% | strongly tactile hypersensitivity-inducing dose (mice [1]; i.p., wildtype mice): 0.03 µg/kg; dose resulting in maximal hypersensitivity (mice [1]; i.p., α-2A knockout mice): 0.0003 µg/kg; dose resulting in maximal hypersensitivity (mice [1]; i.p., α-2C knockout mice): 0.0001 µg/kg; dose at which significant tactile hypersensitivity starts (mice [1]; intraperitoneal, wildtype mice): 0.003 µg/kg; dose at which significant tactile hypersensitivity starts (mice [1]; intrathecal, wildtype mice): 3 ng
CN[C@H](CC(=O)O)C(=O)O [NMDA] | – | – | – | – | – | – | – | dose of maximal tactile hypersensitivity effect (mice [3]; intrathecal, wildtype mice): 100 ng
NCC1(CC(=O)O)CCCCC1 [Gabapentin] | 13.0 | 3.2 ± 0.5 | inhibited tactile hypersensitivity | 3.7 ± 0.8 | – | – | – | inhibition of NMDA-induced tactile hypersensitivity (mice [3]; wildtype mice): inhibited tactile hypersensitivity
CC12CC3CC(C)(C1)CC(N)(C3)C2.Cl [Memantine, 1-amino-3,5-dimethyladamantane hydrochloride] | 11.0 ± 0.7 | 14.3 ± 0.8 | – | 4.2 ± 0.9 | – | – | – | inhibition of NMDA-induced tactile hypersensitivity (mice [3]; wildtype mice): blocked
CS(=O)(=O)NC(=O)CCC/C=C\C[C@H]1C(=O)C[C@@H](O)[C@@H]1/C=C/[C@@H](O)COc1ccccc1 [Sulprostone] | – | – | – | – | – | – | – | maximal dose for tactile hypersensitivity (mice [2]; intrathecal, wild-type and α-2C knockout mice): 200 ng; maximally effective dose for tactile hypersensitivity (mice [2]; intrathecal, α-2A knockout mice): 30 ng
Cc1cccc([C@H](C)c2cnc[nH]2)c1C [Dexmedetomidine] | – | – | – | – | 90% | 62% | 59% | human α2A % E (human α-2A receptor): 93%; agonist activity at the α-1B receptor [4]: partial agonists; agonist activity at the α-1A receptor [5]: partial agonists
Clc1ccc2nsnc2c1NC1=NCCN1 [Tizanidine] | – | – | – | – | 85% | 61% | 63% | human α2A % E (human α-2A receptor): 93%; agonist activity at the α-1B receptor [4]: partial agonists; agonist activity at the α-1A receptor [5]: partial agonists
